For series [1], the system named is MCF-7 cells. The experiment in a line: Cytotoxicity assay (CCK-8) against breast cancer cell line MCF-7. The series is classed as cell-based, human. Particulars: MCF-7, 40 μM, 48 h.
Procedure: (§1) The human breast cancer MCF-7 cell line (ATCC HTB-22) was used in the cytotoxicity assay. The cell line was cultured in DMEM (Gibco, Life Technologies, USA), supplemented with 10% fetal bovine serum (Gibco, Life Technologies, USA), in a 5% CO2 atmosphere at 37 °C. […] After a treatment with 40 μM of each compound (Dissolved with DMSO) for 48 h, the CCK-8 solution (10 μL) was added to each well and incubated for 2 h at 37 °C. The absorbance (Ab) of samples was detected at 450 nm using a microtiter plate reader (TriStar LB941, Berthold Technologies, Germany).
The target in series [2] is PI3K gamma kinase (Homo sapiens, UniProt P48736). As to the kind of experiment: In vitro PI3K gamma kinase assay (PI3-Kinase (human) HTRF Assay kit). To be noted: for IC50: PI3K gamma, 10 μM PIP2, 10 μM ATP, room temperature 1 h, HTRF, two replicates, read-out: IC50 value, PI3K inhibitory activity. The series is classed as biochemical.
Sequence of PI3K gamma kinase (P48736 whole entry): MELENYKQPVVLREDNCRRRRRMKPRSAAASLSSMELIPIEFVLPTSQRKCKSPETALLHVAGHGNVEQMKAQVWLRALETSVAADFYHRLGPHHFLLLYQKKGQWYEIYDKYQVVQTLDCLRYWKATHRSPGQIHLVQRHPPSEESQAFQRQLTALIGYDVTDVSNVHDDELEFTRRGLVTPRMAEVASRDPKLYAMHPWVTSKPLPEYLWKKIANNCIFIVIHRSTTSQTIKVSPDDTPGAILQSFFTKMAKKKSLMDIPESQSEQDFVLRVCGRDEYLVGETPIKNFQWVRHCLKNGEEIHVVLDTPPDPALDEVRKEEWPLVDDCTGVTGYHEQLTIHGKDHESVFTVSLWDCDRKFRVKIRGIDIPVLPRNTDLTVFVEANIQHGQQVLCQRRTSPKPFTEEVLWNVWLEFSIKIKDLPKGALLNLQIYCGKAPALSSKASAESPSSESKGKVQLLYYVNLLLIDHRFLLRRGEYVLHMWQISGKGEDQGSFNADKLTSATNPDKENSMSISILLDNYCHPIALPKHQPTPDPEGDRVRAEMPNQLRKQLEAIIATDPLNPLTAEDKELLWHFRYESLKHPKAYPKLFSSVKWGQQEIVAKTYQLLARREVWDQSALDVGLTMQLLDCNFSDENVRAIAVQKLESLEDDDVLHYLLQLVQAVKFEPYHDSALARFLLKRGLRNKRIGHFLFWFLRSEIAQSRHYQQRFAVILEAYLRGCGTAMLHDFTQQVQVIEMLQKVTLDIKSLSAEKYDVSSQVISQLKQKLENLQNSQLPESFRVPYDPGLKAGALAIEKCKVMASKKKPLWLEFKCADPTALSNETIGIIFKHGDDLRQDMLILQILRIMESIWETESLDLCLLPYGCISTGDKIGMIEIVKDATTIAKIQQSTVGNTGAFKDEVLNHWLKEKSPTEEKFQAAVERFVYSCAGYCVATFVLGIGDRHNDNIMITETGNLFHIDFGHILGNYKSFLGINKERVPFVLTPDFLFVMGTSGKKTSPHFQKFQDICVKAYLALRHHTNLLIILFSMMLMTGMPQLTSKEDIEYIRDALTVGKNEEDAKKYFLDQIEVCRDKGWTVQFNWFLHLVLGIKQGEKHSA
Procedure: The in vitro PI3K gamma kinase assay was carried out using a PI3-Kinase (human) HTRF^TM Assay kit (Millipore, USA) according to the manufacturer’s protocol. Briefly, the PI3K gamma kinase was incubated with 10 μM sample (tested compounds) in the reaction buffer containing 10 μM PIP2 in the wells of a 384-well opaque black plate (PerkinElmer, USA) at room temperature. Kinase reactions were initiated by adding 10 μM ATP and incubating the plate at room temperature for 1 h. The reactions were quenched by adding 5 μL of Stop Solution (containing EDTA and biotin-PIP3), and then the detection buffer (containing the Europium-labeled anti-GST antibody, the GST-tagged receptor of the phosphoinositide (GRP1) PH domain, and streptavidin–APC) was added to each well. Following 2 h incubation in the dark, the HTRF signal was measured with a 2104 EnVision® Multilabel Reader (PerkinElmer, USA) in the time-resolved fluorescence mode, set for excitation at 320 nm and dual emission detection at 615 nm (Eu) and 665 nm (APC). The emission ratio (ER) of 665 nm emission signal to 615 nm emission signal was then calculated and the inhibition ratio of a certain sample on PI3K was calculated according to the following formula: PI3K inhibition (%) = (ERsample − ER0%)/(ER100% − ER0%) × 100%. ER0% means 0% inhibition, which was calculated from the reaction of PI3K, PIP2, and ATP in the absence of sample.
On the set-up of series [3]: method as in PMID 19523825. Particulars: cited from earlier work.
The nature of series [4]: Cytotoxicity assay (CCK-8) against breast cancer cell line MCF-7. Particulars: human, MCF-7 breast cancer cells (ATCC HTB-22), MCF-7, 48 h. The series is classed as cell-based, human.
Procedure: as §1

Where two headings read alike, the source gives them in different places.

In turn, `CC(=O)[C@H]1CC[C@H]2C3=C(CC[C@]12C)[C@@]1(C)CC[C@H](O)C2=C1[C@@](O)(OC2)C3=O` showed a melting point of 218.2 to 221.7 °C.
For the compound `C[C@@]12c3ccc4c(c3C(=O)c3occ(c31)C(=O)C[C@H]2O)CCC4=O` [Compound 1, demethoxyviridin], the “cytotoxicity against MCF-7 (in words)” value in series [1] is listed as “moderate cytotoxicity”. The IC50 in series [2] was determined as 6.6 nM. For the same compound, the “stability in PBS and culture media (in words)” value in series [3] is reported as “instability”.
Turning to `C[C@]12CCC3=C(C(=O)c4occ5c4[C@]3(C)CCC5=O)[C@@H]1CC[C@@H]2O` [Compound 7, (6bR,9S,9aS,11bR)-9-hydroxy-9a,11b-dimethyl-1,2,6b,7,8,9,9a,10,11,11b-decahydrocyclopenta[7,8]phenanthro[10,1-bc]furan-3,6-dione], the half-maximal inhibitory concentration (IC50) at 48 h in series [4] (read-out: IC50 value, cytotoxicity against MCF-7) worked out at 15000 nM. For the same compound, the half-maximal inhibitory concentration (IC50) in series [2] amounted to 42.7 nM.
Turning to `CC(=O)[C@H]1CC[C@H]2C3=C(CC[C@]12C)[C@@]1(C)CCC(=O)c2coc(c21)C3=O` [Compound 10, virone], the IC50 in series [2] was 2250 nM.
For the compound `C[C@@]12c3ccc4c(c3C(=O)c3occ(c31)[C@@H](O)C[C@H]2O)CCC4=O` [Compound 2, demethoxyviridiol], the IC50 at 48 h in series [4] (three replicates, read-out: IC50 value, cytotoxicity against MCF-7 (Supplementary Figure 9b)) turned out to be 37300 nM. Besides, in series [2], the IC50 came to 1070 nM.
As for `CC(=O)O[C@H]1CC[C@H]2C3=C(CC[C@]12C)[C@@]1(C)CC[C@H](O)c2coc(c21)C3=O` [Compound 9, (3S,6bR,9S,9aS,11bR)-3-hydroxy-9a,11b-dimethyl-6-oxo-1,2,3,6,6b,7,8,9,9a,10,11,11b-dodecahydrocyclopenta[7,8]phenanthro[10,1-bc]furan-9-yl acetate], the “inhibitory effect on PI3K (in words)” value in series [2] (10 μM sample, Fig. 8a) is listed as “abolishes the activity”.
Regarding `C[C@]12CCC(=O)c3coc(c31)C(=O)c1c2ccc2c1CCC2=O` [Compound 3, dehydroxydemethoxyviridin], the half-maximal inhibitory concentration (IC50) in series [2] worked out at 167 nM.
Turning to `C[C@]12CCC3=C(C(=O)c4occ5c4[C@]3(C)CC[C@@H]5O)[C@@H]1CC[C@@H]2O`, the melting point was in the range of 187.1 to 189.6 °C.
The same measure, in the same setting: the value for `C[C@]12CC[C@H](O)c3coc(c31)C(=O)C1=C2C=C[C@]2(C)C(=O)CC[C@@H]12` was 236.4 to 238.7 °C.

These data come from paper PMC5943271, “Biosynthetic pathway for furanosteroid demethoxyviridin and identification of an unusual pregnane side-chain cleavage” (Nature Communications, 2018).
